Measurements reported in ChEMBL document CHEMBL4507259 (2021).

Columns and labels:
[1] = molecular target: Sulfonylurea receptors; K-ATP channels (Homo sapiens) (UniProt Q14654+O60706+Q09428+Q15842); test: KATP channel CEREP ligand profiling; type: protein-complex assay; conditions: filed as antagonist; Compound concentration 10.0 uM
[2] = molecular target: Beta-1 adrenergic receptor (Homo sapiens) (UniProt P08588); test: beta 1 (h) CEREP ligand profiling; conditions: filed as agonist, Compound concentration 10.0 uM
Sequence of Beta-1 adrenergic receptor (Homo sapiens) (P08588 whole entry, looked up): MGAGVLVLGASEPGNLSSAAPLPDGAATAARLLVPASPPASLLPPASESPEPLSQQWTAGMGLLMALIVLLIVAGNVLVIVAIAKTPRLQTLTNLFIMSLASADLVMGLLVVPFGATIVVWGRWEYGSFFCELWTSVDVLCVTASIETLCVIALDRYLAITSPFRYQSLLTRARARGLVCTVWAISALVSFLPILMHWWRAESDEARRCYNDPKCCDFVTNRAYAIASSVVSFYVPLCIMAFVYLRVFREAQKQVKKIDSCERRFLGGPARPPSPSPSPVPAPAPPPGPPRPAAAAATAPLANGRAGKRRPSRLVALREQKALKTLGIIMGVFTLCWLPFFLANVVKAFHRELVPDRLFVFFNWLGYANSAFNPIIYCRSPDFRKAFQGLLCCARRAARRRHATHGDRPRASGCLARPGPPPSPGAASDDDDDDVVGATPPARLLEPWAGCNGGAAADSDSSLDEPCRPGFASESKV

[3] = molecular target: 5-hydroxytryptamine receptor 7 (Homo sapiens) (UniProt P34969); test: 5-HT7 (h) CEREP ligand profiling; conditions: filed as agonist, Compound concentration 10.0 uM
[4] = molecular target: Urotensin-2 receptor (Homo sapiens) (UniProt Q9UKP6); test: UT (h) CEREP ligand profiling; conditions: filed as agonist, Compound concentration 10.0 uM
[5] = molecular target: Glutamate [NMDA] receptor (Homo sapiens) (UniProt Q05586+Q12879+Q13224+O15399+O60391+Q14957+Q8TCU5); test: NMDA CEREP ligand profiling; type: protein-complex assay
[6] = molecular target: Motilin receptor (Homo sapiens) (UniProt O43193); test: motilin (h) CEREP ligand profiling; conditions: filed as agonist, Compound concentration 10.0 uM
[7] = molecular target: T1, Muscarinic acetylcholine receptor M2 (Homo sapiens) (UniProt P08172); test: M2 (h) CEREP ligand profiling; conditions: filed as antagonist, Compound concentration 10.0 uM
T1 sequence (whole entry): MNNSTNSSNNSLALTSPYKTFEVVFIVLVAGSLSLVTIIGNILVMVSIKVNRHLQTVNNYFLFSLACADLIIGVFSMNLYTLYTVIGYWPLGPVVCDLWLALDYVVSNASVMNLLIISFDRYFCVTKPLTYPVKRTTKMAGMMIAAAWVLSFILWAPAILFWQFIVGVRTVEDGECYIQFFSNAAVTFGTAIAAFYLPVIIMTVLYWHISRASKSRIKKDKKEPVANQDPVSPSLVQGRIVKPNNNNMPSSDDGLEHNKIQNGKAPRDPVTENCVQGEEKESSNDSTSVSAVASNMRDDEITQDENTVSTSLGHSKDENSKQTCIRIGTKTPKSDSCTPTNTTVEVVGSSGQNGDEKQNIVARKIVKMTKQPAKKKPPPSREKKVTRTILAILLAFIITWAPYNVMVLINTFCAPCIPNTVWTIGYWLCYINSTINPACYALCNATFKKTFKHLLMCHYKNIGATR

[8] = molecular target: 5-hydroxytryptamine receptor 1B (Homo sapiens) (UniProt P28222); test: 5-HT1B CEREP ligand profiling; conditions: filed as antagonist; Compound concentration 10.0 uM
[9] = molecular target: RAC-alpha serine/threonine-protein kinase (Homo sapiens) (UniProt P31749); conditions: Compound concentration 1000.0 nM
Sequence of RAC-alpha serine/threonine-protein kinase (Homo sapiens) (P31749 whole entry): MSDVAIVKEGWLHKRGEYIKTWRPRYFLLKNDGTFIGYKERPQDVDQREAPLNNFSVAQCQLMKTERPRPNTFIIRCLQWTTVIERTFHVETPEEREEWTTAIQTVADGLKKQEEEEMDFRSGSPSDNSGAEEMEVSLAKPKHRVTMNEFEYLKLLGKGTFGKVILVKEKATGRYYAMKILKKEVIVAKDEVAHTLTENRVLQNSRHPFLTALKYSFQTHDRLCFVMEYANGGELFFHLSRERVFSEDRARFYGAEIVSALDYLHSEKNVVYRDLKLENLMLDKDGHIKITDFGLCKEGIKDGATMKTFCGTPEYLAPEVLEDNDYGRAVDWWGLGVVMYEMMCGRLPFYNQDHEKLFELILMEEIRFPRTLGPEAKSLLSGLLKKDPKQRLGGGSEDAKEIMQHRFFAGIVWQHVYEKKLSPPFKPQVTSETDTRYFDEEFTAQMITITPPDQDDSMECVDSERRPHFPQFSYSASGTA

[10] = molecular target: Aurora kinase C (Homo sapiens) (UniProt Q9UQB9); conditions: Compound concentration 1000.0 nM
[11] = molecular target: Calcium/calmodulin-dependent protein kinase type 1B (Homo sapiens) (UniProt Q6P2M8); conditions: Compound concentration 1000.0 nM
Sequence of Calcium/calmodulin-dependent protein kinase type 1B (Homo sapiens) (Q6P2M8 whole entry): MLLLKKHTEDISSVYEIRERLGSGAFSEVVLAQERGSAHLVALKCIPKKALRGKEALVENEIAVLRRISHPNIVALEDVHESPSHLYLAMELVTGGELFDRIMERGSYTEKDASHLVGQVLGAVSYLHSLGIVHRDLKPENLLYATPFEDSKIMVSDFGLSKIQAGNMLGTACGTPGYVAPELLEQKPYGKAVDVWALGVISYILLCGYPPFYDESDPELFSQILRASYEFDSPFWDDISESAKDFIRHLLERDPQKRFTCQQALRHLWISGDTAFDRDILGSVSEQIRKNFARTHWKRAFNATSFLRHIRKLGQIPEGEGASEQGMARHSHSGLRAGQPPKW

[12] = molecular target: Peripheral plasma membrane protein CASK (Homo sapiens) (UniProt O14936); conditions: Compound concentration 1000.0 nM
[13] = molecular target: Serine/threonine-protein kinase DCLK3 (Homo sapiens) (UniProt Q9C098); conditions: Compound concentration 1000.0 nM
Sequence of Serine/threonine-protein kinase DCLK3 (Homo sapiens) (Q9C098 whole entry): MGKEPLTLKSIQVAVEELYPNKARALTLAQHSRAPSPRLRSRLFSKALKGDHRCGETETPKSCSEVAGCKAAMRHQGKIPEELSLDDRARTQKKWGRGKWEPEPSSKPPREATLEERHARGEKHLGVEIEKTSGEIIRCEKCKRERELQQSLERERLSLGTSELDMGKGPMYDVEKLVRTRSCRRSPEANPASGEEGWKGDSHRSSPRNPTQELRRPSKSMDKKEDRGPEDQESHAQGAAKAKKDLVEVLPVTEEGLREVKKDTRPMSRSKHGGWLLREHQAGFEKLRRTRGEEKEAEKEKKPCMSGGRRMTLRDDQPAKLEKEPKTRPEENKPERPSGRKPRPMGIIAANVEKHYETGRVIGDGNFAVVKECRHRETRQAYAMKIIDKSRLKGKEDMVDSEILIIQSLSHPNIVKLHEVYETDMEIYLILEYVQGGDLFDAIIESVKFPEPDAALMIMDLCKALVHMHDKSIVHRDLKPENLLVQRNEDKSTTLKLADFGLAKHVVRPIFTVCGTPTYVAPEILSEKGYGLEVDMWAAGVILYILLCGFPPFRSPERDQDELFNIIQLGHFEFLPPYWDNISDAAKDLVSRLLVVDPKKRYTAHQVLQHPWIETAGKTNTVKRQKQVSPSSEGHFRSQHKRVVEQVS

[14] = tested on: Epidermal growth factor receptor (Homo sapiens), P00533 [G719C]; conditions: Compound concentration 1000.0 nM
[15] = tested on: Epidermal growth factor receptor (Homo sapiens), P00533 [UNDEFINED MUTATION]; conditions: Compound concentration 1000.0 nM
[16] = molecular target: Ephrin type-A receptor 2 (Homo sapiens) (UniProt P29317); conditions: Compound concentration 1000.0 nM
[17] = molecular target: Cyclin-G-associated kinase (Homo sapiens) (UniProt O14976); conditions: Compound concentration 1000.0 nM
[18] = molecular target: G protein-coupled receptor kinase 3 (Homo sapiens) (UniProt P35626); conditions: Compound concentration 1000.0 nM
[19] = molecular target: Hormonally up-regulated neu tumor-associated kinase (Homo sapiens) (UniProt P57058); conditions: Compound concentration 1000.0 nM
[20] = molecular target: Tyrosine-protein kinase JAK1 (Homo sapiens) (UniProt P23458); conditions: Compound concentration 1000.0 nM
[21] = tested on: Mast/stem cell growth factor receptor Kit (Homo sapiens), P10721 [L576P]; conditions: Compound concentration 1000.0 nM
Sequence of Mast/stem cell growth factor receptor Kit (Homo sapiens), P10721 [L576P] (P10721 whole entry L576P): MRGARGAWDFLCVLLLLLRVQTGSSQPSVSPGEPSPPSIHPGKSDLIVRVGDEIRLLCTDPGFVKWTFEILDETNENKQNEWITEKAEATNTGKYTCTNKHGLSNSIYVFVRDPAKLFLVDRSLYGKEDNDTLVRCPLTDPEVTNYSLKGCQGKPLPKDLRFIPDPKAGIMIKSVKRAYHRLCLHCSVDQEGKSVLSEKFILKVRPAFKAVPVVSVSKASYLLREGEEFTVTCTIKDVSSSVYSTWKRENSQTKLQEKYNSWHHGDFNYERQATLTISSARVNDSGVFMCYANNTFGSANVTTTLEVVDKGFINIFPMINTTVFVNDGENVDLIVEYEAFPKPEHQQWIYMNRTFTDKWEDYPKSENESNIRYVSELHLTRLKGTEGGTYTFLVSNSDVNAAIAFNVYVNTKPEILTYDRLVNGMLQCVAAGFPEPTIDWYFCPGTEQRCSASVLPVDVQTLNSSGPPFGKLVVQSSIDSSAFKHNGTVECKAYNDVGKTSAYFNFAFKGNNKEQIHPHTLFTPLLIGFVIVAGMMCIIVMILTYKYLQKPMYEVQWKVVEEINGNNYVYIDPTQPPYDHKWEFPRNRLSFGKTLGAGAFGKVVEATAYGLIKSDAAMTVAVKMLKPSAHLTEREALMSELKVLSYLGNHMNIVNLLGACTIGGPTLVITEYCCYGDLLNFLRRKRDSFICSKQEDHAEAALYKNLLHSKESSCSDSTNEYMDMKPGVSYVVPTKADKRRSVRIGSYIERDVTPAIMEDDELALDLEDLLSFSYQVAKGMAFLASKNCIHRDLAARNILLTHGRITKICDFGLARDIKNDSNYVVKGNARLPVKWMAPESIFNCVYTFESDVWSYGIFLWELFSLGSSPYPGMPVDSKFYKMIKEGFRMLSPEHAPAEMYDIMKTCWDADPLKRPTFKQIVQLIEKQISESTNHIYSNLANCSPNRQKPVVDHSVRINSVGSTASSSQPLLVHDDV

[22] = molecular target: Mast/stem cell growth factor receptor Kit (Homo sapiens) (UniProt P10721); conditions: Compound concentration 1000.0 nM
Sequence of Mast/stem cell growth factor receptor Kit (Homo sapiens) (P10721 whole entry): as the sequence (P10721 whole entry L576P) above, with P576L counted along it

[23] = molecular target: Serine/threonine-protein kinase STK11 (Homo sapiens) (UniProt Q15831); conditions: Compound concentration 1000.0 nM
[24] = molecular target: Mitogen-activated protein kinase kinase kinase 1 (Homo sapiens) (UniProt Q13233); conditions: Compound concentration 1000.0 nM
[25] = molecular target: Dual specificity mitogen-activated protein kinase kinase 6 (Homo sapiens) (UniProt P52564); conditions: Compound concentration 1000.0 nM
[26] = molecular target: MAP kinase-interacting serine/threonine-protein kinase 1 (Homo sapiens) (UniProt Q9BUB5); conditions: Compound concentration 1000.0 nM
[27] = molecular target: Myosin light chain kinase (Homo sapiens) (UniProt Q32MK0); conditions: Compound concentration 1000.0 nM
[28] = molecular target: Mitogen-activated protein kinase 13 (Homo sapiens) (UniProt O15264); conditions: Compound concentration 1000.0 nM
[29] = molecular target: Cyclin-dependent kinase 2 homolog (Plasmodium falciparum (isolate 3D7)) (UniProt P61075); conditions: Compound concentration 1000.0 nM
[30] = molecular target: Protein-tyrosine kinase 2-beta (Homo sapiens) (UniProt Q14289); conditions: Compound concentration 1000.0 nM
[31] = tested on: Proto-oncogene tyrosine-protein kinase receptor Ret (Homo sapiens), P07949 [M918T]; conditions: Compound concentration 1000.0 nM
[32] = molecular target: SRSF protein kinase 3 (Homo sapiens) (UniProt Q9UPE1); conditions: Compound concentration 1000.0 nM
Sequence of SRSF protein kinase 3 (Homo sapiens) (Q9UPE1 whole entry): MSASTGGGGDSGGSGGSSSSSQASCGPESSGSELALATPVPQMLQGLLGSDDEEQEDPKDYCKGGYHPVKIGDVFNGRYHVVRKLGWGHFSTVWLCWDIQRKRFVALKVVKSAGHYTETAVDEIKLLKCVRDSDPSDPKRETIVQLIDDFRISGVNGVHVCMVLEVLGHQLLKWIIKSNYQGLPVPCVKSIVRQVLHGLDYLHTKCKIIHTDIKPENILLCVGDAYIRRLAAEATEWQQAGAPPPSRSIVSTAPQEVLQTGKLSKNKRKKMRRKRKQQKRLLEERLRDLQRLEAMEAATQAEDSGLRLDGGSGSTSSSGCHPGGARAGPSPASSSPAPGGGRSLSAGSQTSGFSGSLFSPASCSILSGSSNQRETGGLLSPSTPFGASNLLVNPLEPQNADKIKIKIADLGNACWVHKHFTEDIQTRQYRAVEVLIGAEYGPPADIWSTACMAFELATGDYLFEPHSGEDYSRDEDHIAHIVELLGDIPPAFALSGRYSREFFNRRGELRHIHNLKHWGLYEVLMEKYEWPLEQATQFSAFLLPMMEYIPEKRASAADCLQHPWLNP

[33] = molecular target: Serine/threonine-protein kinase TBK1 (Homo sapiens) (UniProt Q9UHD2); conditions: Compound concentration 1000.0 nM
Sequence of Serine/threonine-protein kinase TBK1 (Homo sapiens) (Q9UHD2 whole entry): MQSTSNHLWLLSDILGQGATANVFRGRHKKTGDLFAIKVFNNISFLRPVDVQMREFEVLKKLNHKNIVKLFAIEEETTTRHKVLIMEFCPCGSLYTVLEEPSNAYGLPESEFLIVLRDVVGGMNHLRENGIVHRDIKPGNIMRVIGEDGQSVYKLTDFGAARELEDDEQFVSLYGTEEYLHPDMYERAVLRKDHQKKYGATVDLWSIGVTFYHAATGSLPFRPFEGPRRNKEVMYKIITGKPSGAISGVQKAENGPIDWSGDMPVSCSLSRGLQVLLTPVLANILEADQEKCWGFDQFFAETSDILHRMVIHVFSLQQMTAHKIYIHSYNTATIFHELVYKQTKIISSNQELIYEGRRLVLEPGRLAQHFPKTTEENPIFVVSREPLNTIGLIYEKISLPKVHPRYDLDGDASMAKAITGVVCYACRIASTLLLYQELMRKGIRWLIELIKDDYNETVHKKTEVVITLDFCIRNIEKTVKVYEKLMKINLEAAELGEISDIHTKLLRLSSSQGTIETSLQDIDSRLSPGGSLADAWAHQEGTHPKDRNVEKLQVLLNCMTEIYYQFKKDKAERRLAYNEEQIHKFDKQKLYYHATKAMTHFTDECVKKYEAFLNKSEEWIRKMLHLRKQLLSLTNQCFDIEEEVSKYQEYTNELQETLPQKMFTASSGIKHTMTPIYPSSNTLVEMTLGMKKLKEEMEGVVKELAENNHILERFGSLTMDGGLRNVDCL

[34] = molecular target: Tyrosine-protein kinase Tec (Homo sapiens) (UniProt P42680); conditions: Compound concentration 1000.0 nM
Sequence of Tyrosine-protein kinase Tec (Homo sapiens) (P42680 whole entry): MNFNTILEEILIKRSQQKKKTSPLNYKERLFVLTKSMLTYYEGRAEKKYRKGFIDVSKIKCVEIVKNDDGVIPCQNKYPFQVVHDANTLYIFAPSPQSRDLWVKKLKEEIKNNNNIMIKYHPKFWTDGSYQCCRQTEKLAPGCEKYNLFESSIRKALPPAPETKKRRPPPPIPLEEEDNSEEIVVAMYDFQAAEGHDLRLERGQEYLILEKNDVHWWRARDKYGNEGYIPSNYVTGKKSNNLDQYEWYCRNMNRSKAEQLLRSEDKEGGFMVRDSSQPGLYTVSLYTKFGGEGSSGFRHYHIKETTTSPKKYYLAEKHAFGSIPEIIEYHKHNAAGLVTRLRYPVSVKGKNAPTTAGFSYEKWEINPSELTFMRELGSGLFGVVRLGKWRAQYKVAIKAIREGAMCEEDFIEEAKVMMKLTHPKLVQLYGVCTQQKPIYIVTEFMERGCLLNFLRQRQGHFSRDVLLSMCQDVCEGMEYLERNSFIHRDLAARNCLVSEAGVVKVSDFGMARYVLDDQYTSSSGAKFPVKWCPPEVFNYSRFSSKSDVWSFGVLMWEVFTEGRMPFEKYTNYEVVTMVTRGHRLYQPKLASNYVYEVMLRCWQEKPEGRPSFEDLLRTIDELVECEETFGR

[35] = molecular target: TGF-beta receptor type-2 (Homo sapiens) (UniProt P37173); conditions: Compound concentration 1000.0 nM
[36] = molecular target: Non-receptor tyrosine-protein kinase TNK1 (Homo sapiens) (UniProt Q13470); conditions: Compound concentration 1000.0 nM
[37] = molecular target: Non-receptor tyrosine-protein kinase TYK2 (Homo sapiens) (UniProt P29597); conditions: Compound concentration 1000.0 nM
[38] = molecular target: Tyrosine-protein kinase ZAP-70 (Homo sapiens) (UniProt P43403); conditions: Compound concentration 1000.0 nM

CNC(=O)Nc1ccc2c(c1)CC[C@@]21OC(=O)N(CC(=O)N(Cc2ccc(F)cc2)[C@@H](C)C(F)(F)F)C1=O [A-485]
inactive: inhibition [1] 24% | inhibition [2] 17% | inhibition [3] 16% | inhibition [4] 6% | inhibition ([5]; filed as antagonist; Compound concentration 10.0 uM) 4% | inhibition [6] -4% | inhibition [7] -5% | inhibition [8] -6% | residual activity [9] 91% | residual activity [10] 100% | residual activity [11] 100% | residual activity [12] 86% | residual activity [13] 83% | residual activity [14] 97% | residual activity [15] 64% | residual activity [16] 76% | residual activity [17] 100% | residual activity [18] 100% | residual activity [19] 100% | residual activity [20] 100% | residual activity [21] 100% | residual activity [22] 97% | residual activity [23] 100% | residual activity [24] 68% | residual activity [25] 100% | residual activity [26] 67% | residual activity [27] 90% | residual activity [28] 83% | residual activity [29] 91% | residual activity [30] 73% | residual activity [31] 95% | residual activity [32] 95% | residual activity [33] 83% | residual activity [34] 90% | residual activity [35] 90% | residual activity [36] 86% | residual activity [37] 86% | residual activity [38] 73%

CNC(=O)Nc1ccc2c(c1)[C@@]1(CC2)OC(=O)N(CC(=O)N(Cc2ccc(F)cc2)[C@@H](C)C(F)(F)F)C1=O [A-486]
inactive: inhibition [1] 19% | inhibition [2] 6% | inhibition [3] 6% | inhibition [4] 21% | inhibition ([5]; filed as antagonist, Compound concentration 10.0 uM) 2% | inhibition [6] 41% | inhibition [7] -8% | inhibition [8] -9% | residual activity [9] 77% | residual activity [10] 100% | residual activity [11] 90% | residual activity [12] 66% | residual activity [13] 81% | residual activity [14] 100% | residual activity [15] 85% | residual activity [16] 100% | residual activity [17] 100% | residual activity [18] 100% | residual activity [19] 100% | residual activity [20] 85% | residual activity [21] 81% | residual activity [22] 89% | residual activity [23] 100% | residual activity [24] 95% | residual activity [25] 100% | residual activity [26] 94% | residual activity [27] 85% | residual activity [28] 97% | residual activity [29] 95% | residual activity [30] 83% | residual activity [31] 100% | residual activity [32] 100% | residual activity [33] 84% | residual activity [34] 100% | residual activity [35] 95% | residual activity [36] 100% | residual activity [37] 68% | residual activity [38] 100%
